The results in this text go back to patent EP3981777A1, “ANTIVIRAL COMPOUNDS AND POLYMERS” (priority 2020, dated 2022).

The structures appear in SMILES notation.

The target in this experiment is T1, DC-SIGN (Homo sapiens, UniProt Q9NNX6).
T1 construct: host or cells: B-THP-1 (Raji B) cells, DC-SIGN+
T1 sequence (Q9NNX6 1-404): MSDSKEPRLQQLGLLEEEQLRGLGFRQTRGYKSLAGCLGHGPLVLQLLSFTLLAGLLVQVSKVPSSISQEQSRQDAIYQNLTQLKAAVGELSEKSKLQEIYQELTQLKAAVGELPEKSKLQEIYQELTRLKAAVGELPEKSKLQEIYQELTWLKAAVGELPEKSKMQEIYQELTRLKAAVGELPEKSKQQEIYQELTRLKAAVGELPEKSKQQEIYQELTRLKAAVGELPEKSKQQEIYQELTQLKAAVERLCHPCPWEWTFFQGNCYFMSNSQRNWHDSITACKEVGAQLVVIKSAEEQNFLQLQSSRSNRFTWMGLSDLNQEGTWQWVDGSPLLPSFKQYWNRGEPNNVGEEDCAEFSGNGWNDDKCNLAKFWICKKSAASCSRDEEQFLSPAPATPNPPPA
The experiment in a line: cell-based.

What is called IC50 is the concentration needed to halve the response being measured. Consider `CO[C@H]1O[C@H](CO)[C@@H](O)[C@H](O)[C@@H]1O` [MeMan, methyl α-D-mannoside], for which the 50% inhibitory concentration (IC50) came to 6.5 mM.
